In BindingDB's records for doi:10.1021/jm9805642 (Pharmacia and Upjohn, 1999):

Target: Cytosol aminopeptidase (Sus scrofa) (UniProt P28839)
Test: Inhibition against Leucyl aminopeptidase from pig kidney.

Chain of Cytosol aminopeptidase (Sus scrofa) (P28839 whole entry, looked up): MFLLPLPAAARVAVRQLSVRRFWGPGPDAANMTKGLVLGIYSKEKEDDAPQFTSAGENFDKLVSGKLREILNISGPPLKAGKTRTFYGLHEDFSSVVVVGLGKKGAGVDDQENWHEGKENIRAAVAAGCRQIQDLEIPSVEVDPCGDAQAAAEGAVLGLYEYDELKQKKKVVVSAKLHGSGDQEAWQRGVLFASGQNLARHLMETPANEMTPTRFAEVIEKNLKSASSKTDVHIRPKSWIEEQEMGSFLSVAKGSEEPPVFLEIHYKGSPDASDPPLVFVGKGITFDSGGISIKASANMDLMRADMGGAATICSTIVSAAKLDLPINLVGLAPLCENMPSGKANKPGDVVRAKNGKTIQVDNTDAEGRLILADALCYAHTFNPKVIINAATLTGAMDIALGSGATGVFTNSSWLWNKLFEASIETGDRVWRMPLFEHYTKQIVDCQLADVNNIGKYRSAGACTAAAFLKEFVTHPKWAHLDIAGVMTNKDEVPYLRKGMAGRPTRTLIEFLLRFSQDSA

C[C@H](NC(=O)[C@@H]1CCCN1C(=O)C1CCCCC1C(=O)NO)C(N)=O (stereo partly drawn) [(S)-1-(2-Hydroxycarbamoyl-cyclohexanecarbonyl)-pyrrolidine-2-carboxylic acid ((S)-1-carbamoyl-ethyl)-amide]
IC50: > 1000 µM

C[C@H](NC(=O)[C@@H]1CCCN1C(=O)[C@@H]1CC(O)CN1C(=O)[C@@H](O)[C@H](N)Cc1ccccc1)C(N)=O (stereo not given in full) [1-[1-(3-Amino-2-hydroxy-4-phenyl-butyryl)-4-hydroxy-pyrrolidine-2-carbonyl]-pyrrolidine-2-carboxylic acid (1-carbamoyl-ethyl)-amide]
IC50: 1.6 µM

C[C@H](NC(=O)[C@@H]1CCCN1C(=O)[C@@H]1CCCN1C(=O)[C@@H](O)[C@H](N)Cc1ccccc1)C(N)=O [(S)-1-[(S)-1-((2S,3R)-3-Amino-2-hydroxy-4-phenyl-butyryl)-pyrrolidine-2-carbonyl]-pyrrolidine-2-carboxylic acid ((S)-1-carbamoyl-ethyl)-amide]
IC50: 0.3 µM

NC(=O)[C@@H]1CCCN1C(=O)[C@@H]1CCCN1C(=O)[C@@H](O)[C@H](N)Cc1ccccc1 [(S)-1-[(S)-1-((2S,3R)-3-Amino-2-hydroxy-4-phenyl-butyryl)-pyrrolidine-2-carbonyl]-pyrrolidine-2-carboxylic acid amide]
IC50: 2.5 µM

C[C@H](NC(=O)[C@@H]1CCCN1C(=O)C1CCCC1S)C(N)=O (stereo partly drawn) [(S)-1-(2-Mercapto-cyclopentanecarbonyl)-pyrrolidine-2-carboxylic acid ((S)-1-carbamoyl-ethyl)-amide]
IC50: > 1000 µM
